Test results taken from PubChem BioAssay (NCI).
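Method: 48-hour compound exposure of cells in 96-well plates, five concentrations, linear interpolation of endpoints. The concentration for full growth arrest is given as TGI.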

Tests used:
Experiment in all cases: growth of human tumour cells (NCI), 48 h
A498 renal = test system: A498 renal
ACHN renal = test system: ACHN renal
NCI-H226 lung = test system: NCI-H226 lung
UO-31 renal = test system: UO-31 renal
OVCAR-8 ovarian = test system: OVCAR-8 ovarian
SNB-75 CNS = test system: SNB-75 CNS
SR leukemia = test system: SR leukemia
OVCAR-5 ovarian = test system: OVCAR-5 ovarian
HCT-116 colon = test system: HCT-116 colon
HCC-2998 colon = test system: HCC-2998 colon
MDA-MB-435 = test system: MDA-MB-435
SK-MEL-5 melanoma = test system: SK-MEL-5 melanoma
NCI-H522 lung = test system: NCI-H522 lung
MDA-MB-231 breast = test system: MDA-MB-231 breast
UACC-257 melanoma = test system: UACC-257 melanoma
HOP-92 NSCLC = test system: HOP-92 NSCLC
OVCAR-4 ovarian = test system: OVCAR-4 ovarian
CAKI-1 renal = test system: CAKI-1 renal
T-47D breast = test system: T-47D breast
U251 CNS = test system: U251 CNS
IGROV1 ovarian = test system: IGROV1 ovarian
SW-620 colon = test system: SW-620 colon
HOP-62 NSCLC = test system: HOP-62 NSCLC
786-0 renal = test system: 786-0 renal
SK-OV-3 ovarian = test system: SK-OV-3 ovarian
NCI/ADR-RES ovarian = test system: NCI/ADR-RES ovarian
MCF7 breast = test system: MCF7 breast
A549 NSCLC = test system: A549 NSCLC
UACC-62 melanoma = test system: UACC-62 melanoma
SF-295 CNS = test system: SF-295 CNS
PC-3 prostate = test system: PC-3 prostate
BT-549 breast = test system: BT-549 breast
NCI-H460 lung = test system: NCI-H460 lung
EKVX NSCLC = test system: EKVX NSCLC
SF-539 CNS = test system: SF-539 CNS
SF-268 CNS = test system: SF-268 CNS
K-562 leukemia = test system: K-562 leukemia
MOLT-4 leukemia = test system: MOLT-4 leukemia
CCRF-CEM leukemia = test system: CCRF-CEM leukemia
RPMI-8226 leukemia = test system: RPMI-8226 leukemia
SNB-19 CNS = test system: SNB-19 CNS
HCT-15 colon = test system: HCT-15 colon
KM12 colon = test system: KM12 colon
RXF 393 renal = test system: RXF 393 renal
SN12C renal = test system: SN12C renal
COLO 205 colon = test system: COLO 205 colon
DU-145 prostate = test system: DU-145 prostate
HL-60(TB) leukemia = test system: HL-60(TB) leukemia
TK-10 renal = test system: TK-10 renal
SK-MEL-28 melanoma = test system: SK-MEL-28 melanoma
HT29 colon = test system: HT29 colon
SK-MEL-2 melanoma = test system: SK-MEL-2 melanoma
M14 melanoma = test system: M14 melanoma
HS 578T breast = test system: HS 578T breast
NCI-H23 lung = test system: NCI-H23 lung

`Nc1nc(CCl)nc(N2CCOCC2)n1` was tested, and the TGI (A498 renal) was over 100 µM, the TGI (ACHN renal) was 32.5 µM and the TGI (NCI-H226 lung) was over 100 µM. It also gave a TGI (UO-31 renal) of 31.6 µM, a TGI (OVCAR-8 ovarian) of over 100 µM and a TGI (SNB-75 CNS) of 98.6 µM. For the same compound, the TGI (SR leukemia) was 61.8 µM, the TGI (OVCAR-5 ovarian) was 47.3 µM and the TGI (HCT-116 colon) was 66.1 µM. For the same compound, the TGI (HCC-2998 colon) was 36.3 µM, the TGI (MDA-MB-435) was over 100 µM and the TGI (SK-MEL-5 melanoma) was 46.2 µM. For the same compound, the TGI (NCI-H522 lung) was 11.1 µM, the TGI (MDA-MB-231 breast) was 78.7 µM and the TGI (UACC-257 melanoma) was over 100 µM. The TGI (HOP-92 NSCLC) was 32.2 µM, the TGI (OVCAR-4 ovarian) was 33.4 µM and the TGI (CAKI-1 renal) was 30.5 µM. It also gave a TGI (T-47D breast) of over 100 µM, a TGI (U251 CNS) of 53.9 µM and a TGI (IGROV1 ovarian) of 32.6 µM. The TGI (SW-620 colon) was 60.4 µM, the TGI (HOP-62 NSCLC) was 44.5 µM and the TGI (786-0 renal) was 29.2 µM. For the same compound, the TGI (SK-OV-3 ovarian) was over 100 µM, the TGI (NCI/ADR-RES ovarian) was 89.2 µM and the TGI (MCF7 breast) was over 100 µM. For the same compound, the TGI (A549 NSCLC) was over 100 µM, the TGI (UACC-62 melanoma) was 31.4 µM and the TGI (SF-295 CNS) was over 100 µM. The TGI (PC-3 prostate) was over 100 µM, the TGI (BT-549 breast) was over 100 µM and the TGI (NCI-H460 lung) was 41.1 µM. For the same compound, the TGI (EKVX NSCLC) was 38 µM, the TGI (SF-539 CNS) was 51.9 µM and the TGI (SF-268 CNS) was over 100 µM. The TGI (K-562 leukemia) was 54.4 µM, the TGI (MOLT-4 leukemia) was over 100 µM and the TGI (CCRF-CEM leukemia) was 45.7 µM. It also gave a TGI (RPMI-8226 leukemia) of over 100 µM, a TGI (SNB-19 CNS) of over 100 µM and a TGI (HCT-15 colon) of 34.9 µM. It also gave a TGI (KM12 colon) of over 100 µM, a TGI (RXF 393 renal) of over 100 µM and a TGI (SN12C renal) of over 100 µM. For the same compound, the TGI (COLO 205 colon) was 32.5 µM, the TGI (DU-145 prostate) was over 100 µM and the TGI (HL-60(TB) leukemia) was 35.6 µM. For the same compound, the TGI (TK-10 renal) was over 100 µM, the TGI (SK-MEL-28 melanoma) was 45.9 µM and the TGI (HT29 colon) was over 100 µM. The TGI (SK-MEL-2 melanoma) was over 100 µM, the TGI (M14 melanoma) was over 100 µM and the TGI (HS 578T breast) was over 100 µM. The TGI (NCI-H23 lung) was 35.1 µM.
